Holding throughout (assay type): biochemical
Test [1] has as its target T1, human B-Raf protein kinase (Homo sapiens, UniProt P15056).
T1 construct: GST (N); purchased Upstate Inc. 14-530 (B-Raf); 14-420 (Mek1)
Nature of the test: In vitro B-Raf/Mek1 composite kinase assay. The note with it: recombinant GST-tagged human B-Raf (Δ1-415) with inactive Mek1, 2 μM ATP. The procedure, abridged:
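Luminescent ATP-depletion assay using recombinant N-terminal GST-tagged human B-Raf (Δ1-415, 1 ng/well) in MOPS pH 7.2 buffer with 10 mM MgCl2. Compounds were preincubated 15 min at about 22° C, then the reaction ran 2 h before PKLight readout. Efficacy is expressed as percentage of positive-control (Bay 43-9006) activity.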

In test [2] the target is T2, VEGFR2 kinase (Homo sapiens, UniProt P35968).
T2 construct: purchased Invitrogen Inc PV3660
T2 sequence (P35968 20-1356): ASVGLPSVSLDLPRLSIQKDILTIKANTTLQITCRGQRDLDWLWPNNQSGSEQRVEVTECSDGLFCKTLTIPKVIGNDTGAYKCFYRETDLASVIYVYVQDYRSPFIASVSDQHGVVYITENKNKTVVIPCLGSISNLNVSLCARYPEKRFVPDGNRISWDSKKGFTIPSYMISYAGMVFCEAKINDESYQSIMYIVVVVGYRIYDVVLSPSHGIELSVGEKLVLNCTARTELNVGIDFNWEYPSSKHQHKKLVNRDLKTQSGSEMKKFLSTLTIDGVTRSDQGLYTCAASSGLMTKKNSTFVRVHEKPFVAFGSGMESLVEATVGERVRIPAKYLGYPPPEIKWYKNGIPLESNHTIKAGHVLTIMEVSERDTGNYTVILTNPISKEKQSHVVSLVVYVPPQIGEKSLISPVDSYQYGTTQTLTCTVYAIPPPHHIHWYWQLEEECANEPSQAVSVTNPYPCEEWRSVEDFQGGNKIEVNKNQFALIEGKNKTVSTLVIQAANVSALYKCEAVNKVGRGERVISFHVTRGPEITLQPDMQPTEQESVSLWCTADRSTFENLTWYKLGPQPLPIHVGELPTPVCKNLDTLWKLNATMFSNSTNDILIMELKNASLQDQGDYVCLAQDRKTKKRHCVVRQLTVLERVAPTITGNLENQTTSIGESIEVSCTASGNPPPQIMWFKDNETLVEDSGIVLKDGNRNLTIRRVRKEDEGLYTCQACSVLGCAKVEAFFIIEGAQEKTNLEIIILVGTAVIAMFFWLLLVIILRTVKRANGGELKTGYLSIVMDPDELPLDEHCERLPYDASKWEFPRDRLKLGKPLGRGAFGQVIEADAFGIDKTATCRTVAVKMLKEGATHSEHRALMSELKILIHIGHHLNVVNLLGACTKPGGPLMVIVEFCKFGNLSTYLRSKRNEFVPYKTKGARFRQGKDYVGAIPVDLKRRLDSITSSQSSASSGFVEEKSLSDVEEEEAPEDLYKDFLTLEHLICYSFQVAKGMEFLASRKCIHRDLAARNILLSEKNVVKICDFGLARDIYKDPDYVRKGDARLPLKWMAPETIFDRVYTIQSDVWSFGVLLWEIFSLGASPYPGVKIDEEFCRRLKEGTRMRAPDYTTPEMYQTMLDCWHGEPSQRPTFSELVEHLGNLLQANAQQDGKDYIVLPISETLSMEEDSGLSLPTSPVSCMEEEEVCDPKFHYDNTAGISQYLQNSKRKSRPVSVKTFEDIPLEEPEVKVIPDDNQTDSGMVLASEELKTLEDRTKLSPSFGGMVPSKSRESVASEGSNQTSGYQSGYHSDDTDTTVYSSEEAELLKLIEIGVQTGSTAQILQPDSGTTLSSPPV
Nature of the test: In vitro VEGFR2 kinase assay. Conditions: ADP Quest assay, poly Glu:Tyr substrate, 60 μM ATP. The procedure, abridged: (§1)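 Compound was preincubated 10 min at ~22 °C with 20 ng VEGFR2 or 25 ng PDGFRβ, then poly Glu:Tyr (4:1) substrate (0.25 μg) with 60 μM ATP (in added buffer) was reacted 2 h at 30 °C. ADP Quest resorufin fluorescence was read (ex 530/em 580) after 30 min. Efficacy is expressed as percent of positive-control (Bay 43-9006) activity, with DMSO as negative control.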

Test [3] has as its target T3, PDGFRβ kinase (Homo sapiens, UniProt P09619).
T3 construct: purchased Invitrogen Inc. P3082
The test is described as follows: In vitro PDGFRβ kinase assay. Conditions: ADP Quest assay, poly Glu:Tyr substrate, 60 μM ATP. The procedure, abridged: as §1

pIC50: −log10 of the molar value.

T1 sequence (P15056 416-766): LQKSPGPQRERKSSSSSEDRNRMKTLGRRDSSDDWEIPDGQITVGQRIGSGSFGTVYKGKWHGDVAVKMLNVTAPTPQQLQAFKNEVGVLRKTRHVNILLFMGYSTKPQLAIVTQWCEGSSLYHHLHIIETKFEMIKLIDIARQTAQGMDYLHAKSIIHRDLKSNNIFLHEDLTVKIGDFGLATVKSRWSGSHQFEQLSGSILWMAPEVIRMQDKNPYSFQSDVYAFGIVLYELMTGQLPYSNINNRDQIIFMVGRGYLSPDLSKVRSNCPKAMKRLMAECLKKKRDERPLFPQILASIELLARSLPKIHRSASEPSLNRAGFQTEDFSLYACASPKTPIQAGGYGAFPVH
T3 sequence (P09619 33-1106): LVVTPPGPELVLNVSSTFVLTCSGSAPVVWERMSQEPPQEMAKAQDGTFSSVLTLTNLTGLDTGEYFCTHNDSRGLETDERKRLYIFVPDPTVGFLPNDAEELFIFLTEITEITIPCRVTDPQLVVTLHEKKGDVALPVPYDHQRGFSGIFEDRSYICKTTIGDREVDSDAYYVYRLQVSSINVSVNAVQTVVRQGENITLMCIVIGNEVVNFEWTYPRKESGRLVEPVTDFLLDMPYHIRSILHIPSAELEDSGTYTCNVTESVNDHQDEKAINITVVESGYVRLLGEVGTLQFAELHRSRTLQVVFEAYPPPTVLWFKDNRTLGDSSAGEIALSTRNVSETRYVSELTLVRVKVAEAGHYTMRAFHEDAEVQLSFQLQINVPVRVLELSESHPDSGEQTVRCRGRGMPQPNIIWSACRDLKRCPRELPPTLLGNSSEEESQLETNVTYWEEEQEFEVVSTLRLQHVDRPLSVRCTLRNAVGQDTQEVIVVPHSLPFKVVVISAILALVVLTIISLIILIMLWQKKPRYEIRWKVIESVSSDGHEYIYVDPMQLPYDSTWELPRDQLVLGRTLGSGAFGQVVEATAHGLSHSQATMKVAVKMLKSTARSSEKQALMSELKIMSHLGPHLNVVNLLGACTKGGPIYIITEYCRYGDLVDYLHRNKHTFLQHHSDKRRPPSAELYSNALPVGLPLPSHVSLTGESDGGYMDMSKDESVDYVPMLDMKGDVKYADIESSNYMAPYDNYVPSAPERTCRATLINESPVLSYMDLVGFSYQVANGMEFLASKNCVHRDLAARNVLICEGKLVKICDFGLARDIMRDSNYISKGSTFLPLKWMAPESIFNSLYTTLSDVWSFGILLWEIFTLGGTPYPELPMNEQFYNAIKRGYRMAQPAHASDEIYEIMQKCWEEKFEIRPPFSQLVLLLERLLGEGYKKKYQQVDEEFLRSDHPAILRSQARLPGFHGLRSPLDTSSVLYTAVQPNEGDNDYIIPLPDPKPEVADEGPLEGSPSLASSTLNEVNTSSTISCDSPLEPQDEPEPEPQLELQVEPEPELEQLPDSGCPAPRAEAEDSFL

For `Cn1cc(-c2nccc(Oc3cccc(NC(=O)Nc4cccc(C(F)(F)F)c4)c3)n2)cn1` [Example 98, 1-(3-(2-(1-Methyl-1H-pyrazol-4-yl)pyrimidin-4-yloxy)phenyl)-3-(3-(trifluoromethyl)phenyl)urea], the pIC50 in test [1], in test [2] and in test [3] was not below 5.00 throughout.

In the case of `Cn1cc(-c2nccc(Oc3ccc(NC(=O)Nc4cccc(C(F)(F)F)c4)cc3)n2)cn1` [Example 99, 1-(4-(2-(1-Methyl-1H-pyrazol-4-yl)pyrimidin-4-yloxy)phenyl)-3-(3-(trifluoromethyl)phenyl)urea], the pIC50 in test [1], in test [2] and in test [3] was not below 5.00 in each case.

For `Cn1cc(-c2cc(Oc3ccc(F)c(NC(=O)Nc4ccc(C(F)(F)F)cc4)c3)ncn2)cn1` [Example 100, 1-(2-Fluoro-5-(6-(1-methyl-1H-pyrazol-4-yl)pyrimidin-4-yloxy)phenyl)-3-(4-(trifluoromethyl)phenyl)urea], the pIC50 in test [1], in test [2] and in test [3] was not below 5.00 in each case.

As to `Cn1cc(-c2cc(Oc3ccc(NC(=O)Nc4ccc(C(F)(F)F)cc4)cc3)ncn2)cn1` [Example 101, 1-(4-(6-(1-Methyl-1H-pyrazol-4-yl)pyrimidin-4-yloxy)phenyl)-3-(4-(trifluoromethyl)phenyl)urea], the pIC50 in test [1] was less than 5.00; in test [2], not below 5.00; in test [3], not below 5.00.

On to `Cn1cc(-c2nccc(Oc3ccc(NC(=O)Nc4ccc(C(F)(F)F)cc4)cc3)n2)cn1` [Example 102, 1-(4-(2-(1-Methyl-1H-pyrazol-4-yl)pyrimidin-4-yloxy)phenyl)-3-(4-(trifluoromethyl)phenyl)urea], for which the pIC50 in test [1], in test [2] and in test [3] was not below 5.00 in each case.

In the case of `Cc1cc(NC(=O)Nc2cc(Oc3cc(-c4cnn(C)c4)ncn3)ccc2F)no1` [Example 104, 1-(2-Fluoro-5-(6-(1-methyl-1H-pyrazol-4-yl)pyrimidin-4-yloxy)phenyl)-3-(5-methylisoxazol-3-yl)urea], the pIC50 in test [1], in test [2] and in test [3] was not below 5.00 each time.

For the molecule `Cc1cc(NC(=O)Nc2ccc(Oc3ccnc(-c4cnn(C)c4)n3)cc2)no1` [Example 105, 1-(4-(2-(1-Methyl-1H-pyrazol-4-yl)pyrimidin-4-yloxy)phenyl)-3-(5-methylisoxazol-3-yl)urea], the pIC50 in test [1] is less than 5.00; in test [2], not below 5.00; in test [3], not below 5.00.

For `O=C(Nc1cccc(Oc2cc(-c3ccnc4ccnn34)ncn2)c1)Nc1ccc(Cl)c(C(F)(F)F)c1` [Example 106, 1-(4-Chloro-3-(trifluoromethyl)phenyl)-3-(3-(6-(pyrazolo[1,5-a]pyrimidin-7-yl)pyrimidin-4-yloxy)phenyl)urea], the pIC50 in test [1], in test [2] and in test [3] was not below 5.00 throughout.

As to `O=C(Nc1cccc(Oc2cc(-c3ccnc4ncnn34)ncn2)c1)Nc1ccc(Cl)c(C(F)(F)F)c1` [Example 107, 1-(3-(6-([1,2,4]Triazolo[1,5-a]pyrimidin-7-yl)pyrimidin-4-yloxy)phenyl)-3-(4-chloro-3-(trifluoromethyl)phenyl)urea], the pIC50 in test [1], in test [2] and in test [3] was not below 5.00 throughout.

As to `CN(C(=O)Nc1ccc(Oc2ccnc(-c3nnco3)c2)cc1)c1ccc(Cl)c(C(F)(F)F)c1` [Example 108, 3-(4-(2-(1,3,4-Oxadiazol-2-yl)pyridin-4-yloxy)phenyl)-1-(4-chloro-3-(trifluoromethyl)phenyl)-1-methylurea], the pIC50 in test [1], in test [2] and in test [3] was less than 5.00 in each case.

Take `CN(C(=O)Nc1cccc(Oc2ccnc(-c3nnco3)c2)c1)c1ccc(Cl)c(C(F)(F)F)c1` [Example 109, 3-(3-(2-(1,3,4-Oxadiazol-2-yl)pyridin-4-yloxy)phenyl)-1-(4-chloro-3-(trifluoromethyl)phenyl)-1-methylurea]: the results for the pIC50 in test [1], in test [2] and in test [3] were not below 5.00, less than 5.00 and less than 5.00, respectively.

With `CN(C(=O)Nc1ccc(Cl)c(C(F)(F)F)c1)c1ccc(Oc2ccnc(-c3nnco3)c2)cc1` [Example 110, 1-(4-(2-(1,3,4-Oxadiazol-2-yl)pyridin-4-yloxy)phenyl)-3-(4-chloro-3-(trifluoromethyl)phenyl)-1-methylurea], the pIC50 in test [1], in test [2] and in test [3] was not below 5.00 throughout.

For `CN(C(=O)Nc1ccc(Cl)c(C(F)(F)F)c1)c1cccc(Oc2ccnc(-c3nnco3)c2)c1` [Example 111], the pIC50 is less than 5.00 in test [1], less than 5.00 in test [2] and not below 5.00 in test [3].

In the case of `Cc1ccc(F)c(NC(=O)N(C)c2ccc(Oc3ccnc(-c4nnco4)c3)cc2)c1` [Example 112, 3-(2-Fluoro-5-methyl-phenyl)-1-methyl-1-[4-(2-[1,3,4]oxadiazol-2-yl-pyridin-4-yloxy)-phenyl]-urea], the pIC50 in test [1] was not below 5.00; in test [2] it was less than 5.00; in test [3], not below 5.00.

Turning to `CN(C(=O)Nc1ccc(Cl)c(Cl)c1)c1ccc(Oc2ccnc(-c3nnco3)c2)cc1` [Example 113, 3-(3,4-Dichloro-phenyl)-1-methyl-1-[4-(2-[1,3,4]oxadiazol-2-yl-pyridin-4-yloxy)-phenyl]-urea], the pIC50 was not below 5.00 in test [1], less than 5.00 in test [2] and not below 5.00 in test [3].

For `CNC(=O)c1cc(Oc2ccc(N(C)C(=O)Nc3ccc(Cl)c(C(F)(F)F)c3)cc2)ccn1` [Example 114, 4-{4-[3-(4-Chloro-3-trifluoromethyl-phenyl)-1-methyl-ureido]-phenoxy}-pyridine-2-carboxylic acid methylamide], the pIC50 in test [1], in test [2] and in test [3] was not below 5.00 throughout.

Turning to `CNC(=O)c1cccc(NC(=O)N(C)c2ccc(Oc3ccnc(C(=O)NC)c3)cc2)c1` [Example 115, 4-{4-[1-Methyl-3-(3-methylcarbamoyl-phenyl)-ureido]-phenoxy}-pyridine-2-carboxylic acid methylamide], the pIC50 is not below 5.00 in test [1], less than 5.00 in test [2] and less than 5.00 in test [3].

For `CNC(=O)c1cc(NC(=O)N(C)c2ccc(Oc3ccnc(C(=O)NC)c3)cc2)cc(C(F)(F)F)c1` [Example 116, 4-{4-[1-Methyl-3-(3-methylcarbamoyl-5-trifluoromethyl-phenyl)-ureido]-phenoxy}-pyridine-2-carboxylic acid methylamide], the values for the pIC50 in test [1], in test [2] and in test [3] were less than 5.00, not below 5.00 and not below 5.00, respectively.

In the case of `CNC(=O)c1cc(Oc2ccc(N(C)C(=O)Nc3cc(OCCOC)cc(C(F)(F)F)c3)cc2)ccn1` [Example 117, 4-(4-{3-[3-(2-Methoxy-ethoxy)-5-trifluoromethyl-phenyl]-1-methyl-ureido}-phenoxy)-pyridine-2-carboxylic acid methylamide], the pIC50 is less than 5.00 in test [1], not below 5.00 in test [2] and not below 5.00 in test [3].

Regarding `CNC(=O)c1cc(Oc2ccc(N(C)C(=O)Nc3cc(-n4cnc(C)c4)cc(C(F)(F)F)c3)cc2)ccn1` [Example 118, 4-(4-{1-Methyl-3-[3-(4-methyl-imidazol-1-yl)-5-trifluoromethyl-phenyl]-ureido}-phenoxy)-pyridine-2-carboxylic acid methylamide], the pIC50 in test [1], in test [2] and in test [3] was not below 5.00 in each case.

Turning to `CN(C(=O)Nc1ccc(Cl)c(C(F)(F)F)c1)c1ccc(Oc2ccnc(-c3cnn(C)c3)c2)cc1` [Example 119, 3-(4-Chloro-3-trifluoromethyl-phenyl)-1-methyl-1-{4-[2-(1-methyl-1H-pyrazol-4-yl)-pyridin-4-yloxy]-phenyl}-urea], the pIC50 in test [1], in test [2] and in test [3] was not below 5.00 in each case.

In the case of `CN(C(=O)Nc1ccc(Cl)c(C(F)(F)F)c1)c1ccc(Oc2ccnc(-c3nc(C(F)(F)F)c[nH]3)c2)cc1` [Example 120, 3-(4-Chloro-3-trifluoromethyl-phenyl)-1-methyl-1-{4-[2-(4-trifluoromethyl-1H-imidazol-2-yl)-pyridin-4-yloxy]-phenyl}-urea], the pIC50 in test [1], in test [2] and in test [3] was not below 5.00 throughout.

These data come from US20070155764A1, “NOVEL SUBSTITUTED PYRIMIDINYLOXY UREAS USEFUL AS INHIBITORS OF PROTEIN KINASES” (KALYPSYS, INC., priority 2005, published 2007).
